The term MIC denotes the least concentration at which growth counts as inhibited.

Six compounds from PMC8957246, “Synthesis and diverse biological activity profile of triethylammonium isatin-3-hydrazones” (ADMET & DMPK, 2022) can be followed below.

What all share (type): cell-based
The test system of test [1] is Bacillus cereus ATCC 10702 NCTC 8035. Description: Antimicrobial activity, serial dilution (MIC/MBC), Bc. Here is the method: (§1) The antimicrobial activity of the test compounds was determined by the serial dilution technique in Muller Hinton Broth 2 and in Sabouradu broth for fungi. The cultures used for testing included Gram-positive bacteria: Staphylococcus aureus ATCC 6538P FDA 209P, Bacillus cereus ATCC 10702 NCTC 8035, Enterococcus faecalis ATCC 29212; Gram-negative bacteria: Escherichia coli ATCC 25922, Pseudomonas aeruginosa ATCC 9027, and fungi: Trichophyton mentagrophytes var. gypseum 1773, and Candida albicans ATCC 10231; methicillin-resistant strains of S. aureus (MRSA) was obtained from hospital patients with chronic tonsillitis in the Republican Clinical Hospital (Kazan, Russia). The bacterial load was 3.0 × 10^5 cfu/ml. The fungi load was 2.0 × 10^3 cfu/ml. The results were recorded every 24 h for 5-7 days. Cultures were incubated at 37 °C. The experiment was repeated three times. […] The minimum inhibitory concentration (MIC) was defined as the minimum concentration of a compound that inhibits the growth of the corresponding test microorganism. The growth of bacteria, as well as the absence of the growth due to the bacteriostatic action of compounds, were recorded.
(§2) Synthesized compounds were further evaluated for antimicrobial activity against test microorganisms: Staphylococcus aureus ATCC 209p (Sa), Bacillus cereus ATCC 8035 (Bc), Escherichia coli CDC F-50 (Ec), Enterococcus faecalis (Ef), Pseudomonas aeruginosa ATCC 9027, Aspergillus niger BKMF-1119, Trichophyton mentagrophytes var. gypseum 1773, and Candida albicans 855-653 including methicillin-resistant strains of S. aureus (MRSA 1 and MRSA 2). The minimum inhibitory (MIC) and minimum bactericidal (MBC) concentrations of ammonium salts were determined against these pathogens (Table 1). Due to the lack of activity of compounds 3a-g against Gram-negative bacterial strains and some fungi, the corresponding data are not shown.

The subject of test [2] is Pectobacterium carotovorum subsp. carotovorum MI. Description: Bactericidal activity, agar diffusion, P. carotovorum. The note with it: Pectobacterium carotovorum, 2 mM/L. The source says:
(§3) Plant pathogenic bacterial strains Micrococcus luteus B-109, Pectobacterium atrosepticum 1043, Pectobacterium carotovorum subsp. carotovorum MI, Pseudomonas fluorescens EL-2.1, and Xanthomonas campestris B-610 and fungal strain Fusarium oxysporum IBPPM 543 were obtained from the specialized scientific culture collection of IBPPM RAS (WFCC no. 975, WDCM no. 1021) (CM IBPPM). Pathogenic fungus Phytophthora cactorum VKM F-985 provided by the All-Russian Collection of Microorganisms (VKM) and deposited at A.E. Favorsky Irkutsk Institute of Chemistry, SB RAS, was also used as test organism. Bacteria M. luteus, P. carotovorum subsp. carotovorum, P. atrosepticum, and Ps. fluorescens were grown in meat-peptone medium (BP), and X. campestris was grown in the medium with glucose, yeast extract, and calcium carbonate (GYCa). Solid media contained Bacto agar (18 g/L); pH was adjusted to 7.2-7.4. All bacterial cultures were grown at 28°C. The mycelial cultures of F. oxysporum and P. cactorum were grown on a glucose-peptone-yeast (GPY) nutrient medium at 27 °C. For inoculum preparation, both fungal strains were initially grown on the agar GPY in Petri dishes and then transferred into the seed medium by punching out 5 mm of the agar plate culture with a self-designed cutter.
(§4) Antibacterial and antifungal activities of the compounds were explored using the agar diffusion method and the technique of a phytopathogen radial growth inhibition. Method of diffusion in agar (measuring the diameter of growth inhibition zones) was used for determining the bactericidal activity. The 6-mm wells were made in ager medium (GYCa for Xanthomonas campestris or BP for other bacteria). Bacterial suspensions were distributed over the agar surface, and the tested compound's solution (150 μl) was added to each well. The width of growth inhibition zones around the wells was determined after incubation for 36-40 h.
(§5) The solutions of tested compounds were prepared with a concentration of 2 mmol/l (stock solution). For comparison, test compounds were also commonly applied disinfecting agents and antibiotics.

Test [3] deals with platelets (ADP-induced aggregation). Description: Platelet aggregation (Born method), ADP-induced. The note with it: Homo sapiens, ADP 20 μg/mL, final concentration 2×10^–3 mol/L, median (25-75 percentiles), read-out: Platelets aggregation, % of control, ADP. Here is the method: (§6) The in vitro experiments were performed using the blood of healthy male donors aged 18-24 years (total 54 donors). The study was approved by the Ethics Committee of Federal State Budgetary Educational Institution of Higher Education at the Bashkir State Medical University of the Ministry of Health of Russian Federation (No.2 dated 17.10.2012). Informed consent was obtained from all participants before blood sampling. The blood was collected from the cubital vein using the system of vacuum blood collection BD Vacutainer® (Becton, Dickinson and Company, USA). A 3.8 % sodium citrate solution in a 9:1 ratio was used as a venous blood stabiliser. The study of the effect on platelet aggregation was performed using the Born method using the aggregometer «AT-02» (SPC Medtech, Russia). The assessment of antiplatelet activity of the studied compounds and reference preparations was started with the final concentration of 2×10^–3 mol/L. Adenosine diphosphate (ADP; 20 μg/mL) and collagen (5 mg/mL) manufactured by Tehnologia-Standart Company, Russia, were used as inducers of aggregation. The study on the anticoagulant activity was performed by standard recognised clotting tests using the optical two-channel automatic analyser of blood coagulation Solar CGL 2110 (CJSC SOLAR, Belarus). The following parameters were studied: activated partial thromboplastin time (APTT), prothrombin time (PT) and fibrinogen concentrations according to the Clauss method. The determination of anticoagulant activity of the studied compounds and reference preparation was performed in a concentration of 5×10^–4 g/mL using the reagents manufactured by Tehnologia-Standart Company (Barnaul, Russia). The results of the study were processed using the statistical package Statistica 10.0 (StatSoft Inc, USA). The Shapiro–Wilk’s test was used to check the normality of actual data distribution. The form of distribution of the data obtained differed from the normal one; therefore, non-parametric methods were used for further analysis. The data were presented as medians and 25 and 75 percentiles. Analysis of variance was conducted using Kruskal–Wallis test. A p value of 0.05 was considered statistically significant.

Test [4] relates to Candida albicans ATCC 10231. Description: Antimicrobial activity, serial dilution (MIC/MBC), Ca. The note with it: ATCC10231. Here is the method: as §1, §2
The test system of test [5] is platelets (collagen-induced aggregation). Description: Platelet aggregation (Born method), collagen-induced. The note with it: Homo sapiens, collagen 5 mg/mL, final concentration 2×10^–3 mol/L, median (25-75 percentiles), read-out: Platelets aggregation, % of control, Collagen. On the procedure:
as §6

The test system of test [6] is Xanthomonas campestris B-610. Briefly: Bactericidal activity, agar diffusion, X. campestris. Particulars: Xanthomonas campestris, B610, 2 mM/L.
Excerpt: as §3, §4, §5

In test [7] the test system is methicillin-resistant strains of S. aureus (MRSA-1). Briefly: Antimicrobial activity, serial dilution (MIC/MBC), MRSA-1. Particulars: Staphylococcus aureus. On the procedure:
as §1, §2

Where [8] appears, read: 150 μl per well, 36-40 h, read-out: width of the inhibition zone.
Where [9] appears, read: read-out: Inhibition zone width (mm), not less.

Like-named read-outs stand apart in the source and are kept apart here.

`CC[N+](CC)(CC)CC(=O)N/N=C1\C(=O)N(Cc2cc(C(C)(C)C)c(O)c(C(C)(C)C)c2)c2cccc(Br)c21` [Compound 3e, 2-(2-(1-(3,5-Di-tert-butyl-4-hydroxybenzyl)-4-bromo-2-oxoindolin-3-ylidene)hydrazinyl)-N,N,N-triethyl-2-oxoethanammonium bromide]: the results for the MBC in test [1] (Bacillus cereus) and in test [4] were 284 µM and greater than 500 µM, respectively. The minimum inhibitory concentration (MIC) in test [1] (Bacillus cereus, read-out: MIC) is 71 ± 6.2 µM; in test [4] it was greater than 500 µM. The zone of inhibition at 2000 µM in test [2] (setting [8]) was 10 mm; in test [2] (setting [9]), no less than 10 mm; in test [6] (setting [8]), 11 mm; in test [6] (setting [9]), no less than 11 mm. In addition, the inhibition at 2000 µM is 0.5% in test [3] and 2.4% in test [5].
With `CC[N+](CC)(CC)CC(=O)N/N=C1\C(=O)N(Cc2cc(C(C)(C)C)c(O)c(C(C)(C)C)c2)c2c1ccc(C)c2C` [Compound 3d, 2-(2-(1-(3,5-Di-tert-butyl-4-hydroxybenzyl)-6,7-dimethyl-2-oxoindolin-3-ylidene)hydrazinyl)-N,N,N-triethyl-2-oxoethanammonium bromide], the MBC in test [1] (Bacillus cereus) was 198 µM; in test [7], 12.4 µM; in test [4] it was greater than 500 µM. In addition, the MIC in test [1] (Bacillus cereus, read-out: MIC) was 49.6 ± 3.9 µM; in test [7] it was 6.2 ± 0.5 µM; in test [4] it was 198 ± 15.5 µM. Moreover, the zone of inhibition at 2000 µM in test [2] (setting [8]) is 8 mm; in test [2] (setting [9]) it was no less than 8 mm; in test [6] (setting [8]), 8 mm; in test [6] (setting [9]), no less than 8 mm. Moreover, the inhibition at 2000 µM in test [3] amounted to 9%; in test [5] it was 8.5%.
Turning to `CC[N+](CC)(CC)CC(=O)N/N=C1\C(=O)N(Cc2cc(C(C)(C)C)c(O)c(C(C)(C)C)c2)c2c(Br)cc(Cl)cc21` [Compound 3g, 2-(2-(1-(3,5-Di-tert-butyl-4-hydroxybenzyl)-5-chloro-7-bromo-2-oxoindolin-3-ylidene)hydrazinyl)-N,N,N-triethyl-2-oxoethanammonium bromide], the MBC in test [1] (Bacillus cereus) is 87.4 µM; in test [4], greater than 500 µM. Moreover, the minimal inhibitory concentration (MIC) was 43.7 ± 3.5 µM in test [1] (Bacillus cereus, read-out: MIC) and greater than 500 µM in test [4]. The zone of inhibition at 2000 µM was 9 mm in test [2] (setting [8]), no less than 9 mm in test [2] (setting [9]), 8 mm in test [6] (setting [8]) and no less than 8 mm in test [6] (setting [9]). The inhibition at 2000 µM in test [3] was 10.2%; in test [5], 8.9%.
In the case of `CC[N+](CC)(CC)CC(=O)N/N=C1\C(=O)N(Cc2cc(C(C)(C)C)c(O)c(C(C)(C)C)c2)c2ccc([N+](=O)[O-])cc21` [Compound 3f, 2-(2-(1-(3,5-Di-tert-butyl-4-hydroxybenzyl)-5-nitro-2-oxoindolin-3-ylidene)hydrazinyl)-N,N,N-triethyl-2-oxoethanammonium bromide], the MBC in test [1] (Bacillus cereus) and in test [4] was greater than 500 µM throughout. Also, the MIC is 397 ± 31.7 µM in test [1] (Bacillus cereus, read-out: MIC) and greater than 500 µM in test [4]. The figures for the zone of inhibition at 2000 µM in test [2] (setting [8]) and in test [6] (setting [8]) were 5 mm and 7.5 mm, respectively. Moreover, the values for the inhibition at 2000 µM in test [3] and in test [5] were 4.6% and 4.3%, respectively.
Turning to `CCc1cccc2c1N(Cc1cc(C(C)(C)C)c(O)c(C(C)(C)C)c1)C(=O)/C2=N\NC(=O)C[N+](CC)(CC)CC` [Compound 3c, 2-(2-(1-(3,5-Di-tert-butyl-4-hydroxybenzyl)-7-ethyl-2-oxoindolin-3-ylidene)hydrazinyl)-N,N,N-triethyl-2-oxoethanammonium bromide], the MIC in test [1] was 24.8 ± 1.9 µM; in test [1] (Bacillus cereus, read-out: MIC), roughly 25 µM; in test [7] it was 49.7 ± 3.9 µM; in test [4], greater than 500 µM. Also, the values for the MBC in test [1] (Bacillus cereus), in test [7] and in test [4] were 99.3 µM, 99.3 µM and greater than 500 µM, respectively. The zone of inhibition at 2000 µM in test [2] (setting [8]) was 9 mm; in test [2] (setting [9]), no less than 9 mm; in test [6] (setting [8]), 11 mm; in test [6] (setting [9]) it was no less than 11 mm. In addition, the inhibition at 2000 µM in test [3] turned out to be 13.7%; in test [5] it was 12.5%.
As to `CC[N+](CC)(CC)CC(=O)N/N=C1\C(=O)N(Cc2cc(C(C)(C)C)c(O)c(C(C)(C)C)c2)c2ccccc21` [Compound 3a, 2-(2-(1-(3,5-Di-tert-butyl-4-hydroxybenzyl)-2-oxoindolin-3-ylidene)hydrazinyl)-N,N,N-triethyl-2-oxoethanammonium bromide], the MBC in test [1] (Bacillus cereus) and in test [4] was greater than 500 µM throughout. Also, the minimum inhibitory concentration (MIC) was 52 ± 4.7 µM in test [1] (Bacillus cereus, read-out: MIC) and greater than 500 µM in test [4]. For the same compound, the zone of inhibition at 2000 µM in test [2] (setting [8]) is 10 mm; in test [2] (setting [9]), no less than 10 mm; in test [6] (setting [8]) it was 10 mm; in test [6] (setting [9]), no less than 10 mm. Moreover, the values for the inhibition at 2000 µM in test [3] and in test [5] were 10.5% and 9.4%, respectively.
